US20250228239A1, “MOLECULES HAVING PESTICIDAL UTILITY, AND INTERMEDIATES, COMPOSITIONS, AND PROCESSES, RELATED THERETO” (priority 2024, published 2025)
Like-named read-outs stand apart in the source and are kept apart here.

Assays:
[1] = tested on: Beet Armyworm (Spodoptera exigua, LAPHEG); experiment: Bioassays on Beet Armyworm (BAW), 128-well diet tray assay; format: in vivo; settings: Spodoptera exigua
In short: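 One to five second-instar larvae per well on artificial diet surface-treated with 50 μg/cm^2 test molecule (applied in 90:10 acetone-water, dried), eight wells per compound. Trays held vented at 25° C., 14:10 light-dark for five to seven days; percent mortality averaged over the eight wells.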

[2] = tested on: Cabbage Looper (Trichoplusia ni, TRIPNI); experiment: Bioassays on Cabbage Looper (CL), 128-well diet tray assay; format: in vivo; settings: Trichoplusia ni
In short: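 Test molecule was dissolved in 90:10 acetone-water, applied to artificial diet at 50 μg/cm^2 and allowed to dry. Second-instar larvae were then added, one to five per well, and trays held at 25° C for five to seven days before mortality was scored and averaged.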

[3] = Beet Armyworm, rating class, read-out: BAW
[4] = Cabbage Looper, rating class, read-out: CL
[5] = Beet Armyworm, Table ABC / ABC-DP rating, read-out: BAW rating
[6] = Cabbage Looper, Table ABC / ABC-DP rating, read-out: CL rating
[7] = Table ABC: Biological Results, species BAW, read-out: BAW
[8] = Table ABC: Biological Results, species CL, read-out: CL

With `CC(=O)Nc1c(F)ccc(NC(=O)c2cc(NC(=O)[C@H]3[C@H](c4cc(Cl)c(Cl)c(Cl)c4)C3(Cl)Cl)cc(C)c2Cl)c1F` [F1544, N-(3-Acetamido-2,4-difluorophenyl)-2-chloro-5-((1R,3R)-2,2-dichloro-3-(3,4,5-trichlorophenyl)cyclopropane-1-carboxamido)-3-methylbenzamide] the pest or weed control at 50 µg/cm2 [1, 3] was 50 to 100% and the pest or weed control at 50 µg/cm2 [2, 4] was 50 to 100%.

Work on `C=CCC(=O)Nc1ccc(F)c(NC(=O)c2cc(NC(=O)[C@H]3[C@H](c4cc(Cl)c(Cl)c(Cl)c4)C3(Cl)Cl)cc(F)c2F)c1F` [F1875, N-(3-(But-3-enamido)-2,6-difluorophenyl)-5-((1R,3R)-2,2-dichloro-3-(3,4,5-trichlorophenyl)cyclopropane-1-carboxamido)-2,3-difluorobenzamide] yielded a pest or weed control at 50 µg/cm2 [1, 5] of 50 to 100% and a pest or weed control at 50 µg/cm2 [2, 6] of 50 to 100%.

Work on `CCOC(CC)C(=O)Nc1c(F)ccc(NC(=O)c2cc(NC(=O)[C@H]3[C@H](c4ccc(F)c(C(F)(F)F)c4)C3(Cl)Cl)ccc2Cl)c1F` (stereo partly drawn) [F1757, 2-Chloro-5-((1R,3R)-2,2-dichloro-3-(4-fluoro-3-(trifluoromethyl)phenyl)cyclopropane-1-carboxamido)-N-(3-(2-ethoxybutanamido)-2,4-difluorophenyl)benzamide] yielded a pest or weed control at 50 µg/cm2 [1, 3] of 50 to 100% and a pest or weed control at 50 µg/cm2 [2, 4] of 50 to 100%.

`O=C(Nc1ccc(F)c(NS(=O)(=O)CCC(F)(F)F)c1F)c1cc(NC(=O)[C@H]2[C@H](c3ccc(F)c(C(F)(F)F)c3)C2(Cl)Cl)ccc1Cl` [F1350, 2-Chloro-5-((1R,3R)-2,2-dichloro-3-(4-fluoro-3-(trifluoromethyl)phenyl)cyclopropane-1-carboxamido)-N-(2,4-difluoro-3-((3,3,3-trifluoropropyl)sulfonamido)phenyl)benzamide] was tested, and the pest or weed control at 50 µg/cm2 [1, 7] was 50 to 100% and the pest or weed control at 50 µg/cm2 [2, 8] was 50 to 100%.

`O=C(Nc1ccc(F)cc1F)c1cc(NC(=O)[C@H]2[C@H](c3cc(F)cc(Br)c3F)C2(Cl)Cl)ccc1Cl` (relative stereo) [F1093, trans-5-(3-(3-bromo-2,5-difluorophenyl)-2,2-dichlorocyclopropane-1-carboxamido)-2-chloro-N-(2,4-difluorophenyl)benzamide] gave a pest or weed control at 50 µg/cm2 [1, 7] of 50 to 100% and a pest or weed control at 50 µg/cm2 [2, 8] of 50 to 100%.

`O=C(Nc1ccc(F)cc1)c1cc(NC(=O)[C@H]2[C@H](c3ccc(F)c(Cl)c3)C2(Cl)Cl)cc(F)c1F` (relative stereo) [F1208, trans-5-(2,2-Dichloro-3-(3-chloro-4-fluorophenyl)cyclopropane-1-carboxamido)-2,3-difluoro-N-(4-fluorophenyl)benzamide] was tested, and the pest or weed control at 50 µg/cm2 [1, 7] was 50 to 100% and the pest or weed control at 50 µg/cm2 [2, 8] was 50 to 100%.

`CCCNc1c(F)ccc(NC(=O)c2cc(NC(=O)[C@H]3[C@H](c4ccc(F)c(C(F)(F)F)c4)C3(Cl)Cl)ccc2Cl)c1F` [F1838, 2-Chloro-5-((1R,3R)-2,2-dichloro-3-(4-fluoro-3-(trifluoromethyl)phenyl)cyclopropane-1-carboxamido)-N-(2,4-difluoro-3-(propylamino)phenyl)benzamide] showed a pest or weed control at 50 µg/cm2 [1, 5] of 50 to 100% and a pest or weed control at 50 µg/cm2 [2, 6] of 50 to 100%.

`O=C(Nc1c(F)ccc(NC(=O)C(F)(F)F)c1F)c1cc(NC(=O)[C@H]2[C@H](c3cc(Cl)c(Cl)c(Cl)c3)C2(Cl)Cl)cc(F)c1Cl` [F1342, 2-Chloro-5-((1R,3R)-2,2-dichloro-3-(3,4,5-trichlorophenyl)cyclopropane-1-carboxamido)-N-(2,6-difluoro-3-(2,2,2-trifluoroacetamido)phenyl)-3-fluorobenzamide] showed a pest or weed control at 50 µg/cm2 [1, 7] of 50 to 100% and a pest or weed control at 50 µg/cm2 [2, 8] of 50 to 100%.

In the case of `O=C(CC(F)(F)F)Nc1c(F)ccc(NC(=O)c2cc(NC(=O)[C@H]3[C@H](c4ccc(F)c(C(F)(F)F)c4)C3(Cl)Cl)ccc2Cl)c1F` [F1683, 2-Chloro-5-((1R,3R)-2,2-dichloro-3-(4-fluoro-3-(trifluoromethyl)phenyl)cyclopropane-1-carboxamido)-N-(2,4-difluoro-3-(3,3,3-trifluoropropanamido)phenyl)benzamide], the pest or weed control at 50 µg/cm2 [1, 3] is reported as 50 to 100% and the pest or weed control at 50 µg/cm2 [2, 4] is reported as 50 to 100%.

In the case of `Cc1cc(NC(=O)[C@H]2[C@H](c3ccc(Cl)c(Cl)c3)C2(Cl)Cl)cc(C(=O)Nc2cc(NC(=O)C(F)(F)F)c(F)cc2F)c1Cl` [F1497, 2-Chloro-5-((1R,3R)-2,2-dichloro-3-(3,4-dichlorophenyl)cyclopropane-1-carboxamido)-N-(2,4-difluoro-5-(2,2,2-trifluoroacetamido)phenyl)-3-methylbenzamide], the pest or weed control at 50 µg/cm2 [1, 3] is reported as 50 to 100% and the pest or weed control at 50 µg/cm2 [2, 4] is reported as 50 to 100%.

For `Cc1cc(NC(=O)[C@H]2[C@H](c3ccc(F)c(C(F)(F)F)c3)C2(Cl)Cl)cc(C(=O)Nc2ccc(F)c(NC(=O)C(F)(F)F)c2F)c1Cl` [F1495, 2-Chloro-5-((1R,3R)-2,2-dichloro-3-(4-fluoro-3-(trifluoromethyl)phenyl)cyclopropane-1-carboxamido)-N-(2,4-difluoro-3-(2,2,2-trifluoroacetamido)phenyl)-3-methylbenzamide], the pest or weed control at 50 µg/cm2 [1, 3] was 50 to 100% and the pest or weed control at 50 µg/cm2 [2, 4] was 50 to 100%.

In the case of `COCC(=O)NNC(=O)c1cc(NC(=O)[C@H]2[C@H](c3cc(Cl)cc(Cl)c3)C2(Cl)Cl)ccc1Cl` (relative stereo) [F2529, trans-2,2-Dichloro-N-(4-chloro-3-(2-(2-methoxyacetyl)hydrazine-1-carbonyl)phenyl)-3-(3,5-dichlorophenyl)cyclopropane-1-carboxamide], the pest or weed control at 50 µg/cm2 [1, 5] is reported as 50 to 100% and the pest or weed control at 50 µg/cm2 [2, 6] is reported as 50 to 100%.

In the case of `Nc1ccc(F)c(NC(=O)c2cc(NC(=O)[C@H]3[C@H](c4cc(Cl)c(Cl)c(Cl)c4)C3(Cl)Cl)cc(F)c2F)c1F` [F1770, N-(3-Amino-2,6-difluorophenyl)-5-((1R,3R)-2,2-dichloro-3-(3,4,5-trichlorophenyl)cyclopropane-1-carboxamido)-2,3-difluorobenzamide], the pest or weed control at 50 µg/cm2 [1, 5] is reported as 50 to 100% and the pest or weed control at 50 µg/cm2 [2, 6] is reported as 50 to 100%.

Work on `O=C(Nc1ccc(F)c(NC(=O)C(F)(F)F)c1F)c1cc(NC(=O)[C@H]2[C@H](c3cc(Cl)c(Cl)c(Cl)c3)C2(Cl)Cl)ccc1Cl` [F1533, 2-Chloro-5-((1R,3R)-2,2-dichloro-3-(3,4,5-trichlorophenyl)cyclopropane-1-carboxamido)-N-(2,4-difluoro-3-(2,2,2-trifluoroacetamido)phenyl)benzamide] yielded a pest or weed control at 50 µg/cm2 [1, 3] of 50 to 100% and a pest or weed control at 50 µg/cm2 [2, 4] of 50 to 100%.

`O=C(Nc1c(F)ccc(NC(=O)c2cc(NC(=O)[C@H]3[C@H](c4ccc(F)c(C(F)(F)F)c4)C3(Cl)Cl)ccc2Cl)c1F)c1ccccc1` [F1179, N-(3-Benzamido-2,4-difluorophenyl)-2-chloro-5-((1R,3R)-2,2-dichloro-3-(4-fluoro-3-(trifluoromethyl)phenyl)cyclopropane-1-carboxamido)benzamide] gave a pest or weed control at 50 µg/cm2 [1, 7] of 50 to 100% and a pest or weed control at 50 µg/cm2 [2, 8] of 50 to 100%.

Work on `CC(=O)Nc1c(F)ccc(NC(=O)c2cc(NC(=O)[C@H]3[C@H](c4cc(Cl)c(Cl)c(Cl)c4)C3(Cl)Cl)cc(F)c2Cl)c1F` [F1504, N-(3-Acetamido-2,4-difluorophenyl)-2-chloro-5-((1R,3R)-2,2-dichloro-3-(3,4,5-trichlorophenyl)cyclopropane-1-carboxamido)-3-fluorobenzamide] yielded a pest or weed control at 50 µg/cm2 [1, 3] of 50 to 100% and a pest or weed control at 50 µg/cm2 [2, 4] of 50 to 100%.

`O=C(Nc1ccc(F)c(NC(=O)C2CCO2)c1F)c1cc(NC(=O)[C@H]2[C@H](c3ccc(F)c(C(F)(F)F)c3)C2(Cl)Cl)ccc1Cl` (stereo partly drawn) [F1503, N-(3-(2-Chloro-5-((1R,3R)-2,2-dichloro-3-(4-fluoro-3-(trifluoromethyl)phenyl)cyclopropane-1-carboxamido)benzamido)-2,6-difluorophenyl)oxetane-2-carboxamide] was tested, and the pest or weed control at 50 µg/cm2 [1, 3] was 50 to 100% and the pest or weed control at 50 µg/cm2 [2, 4] was 50 to 100%.

With `O=C(NCC(F)(F)F)c1cc(NC(=O)[C@H]2[C@H](c3ccc(F)c(C(F)(F)F)c3)C2(Cl)Cl)c(F)cc1Cl` [F2084, 2-Chloro-5-((1R,3R)-2,2-dichloro-3-(4-fluoro-3-(trifluoromethyl)phenyl)cyclopropane-1-carboxamido)-4-fluoro-N-(2,2,2-trifluoroethyl)benzamide] the pest or weed control at 50 µg/cm2 [1, 5] was 50 to 100% and the pest or weed control at 50 µg/cm2 [2, 6] was 50 to 100%.

`COCCN(C(=O)OC(C)(C)C)c1ccc(NC(=O)c2cc(NC(=O)[C@H]3[C@H](c4cc(Cl)cc(Cl)c4)C3(Cl)Cl)ccc2Cl)c(C)c1` (relative stereo) [F1159, trans-tert-Butyl-(4-(2-chloro-5-(2,2-dichloro-3-(3,5-dichlorophenyl)cyclopropane-1-carboxamido)benzamido)-3-methylphenyl)(2-methoxyethyl)carbamate] gave a pest or weed control at 50 µg/cm2 [1, 7] of 50 to 100% and a pest or weed control at 50 µg/cm2 [2, 8] of 50 to 100%.

`O=C(Nc1cc(Br)c(F)cc1F)c1cc(NC(=O)[C@H]2[C@H](c3cc(Cl)cc(Cl)c3)C2(Cl)Cl)ccc1Cl` (relative stereo) [F1308, trans-N-(5-Bromo-2,4-difluorophenyl)-2-chloro-5-(2,2-dichloro-3-(3,5-dichlorophenyl)cyclopropane-1-carboxamido)benzamide] was tested, and the pest or weed control at 50 µg/cm2 [1, 7] was 50 to 100% and the pest or weed control at 50 µg/cm2 [2, 8] was 50 to 100%.

Work on `Nc1c(F)ccc(NC(=O)c2cc(NC(=O)[C@H]3[C@H](c4cc(Cl)c(Cl)c(Cl)c4)C3(Cl)Cl)cc(F)c2Cl)c1F` [F1325, N-(3-Amino-2,4-difluorophenyl)-2-chloro-5-((1R,3R)-2,2-dichloro-3-(3,4,5-trichlorophenyl)cyclopropane-1-carboxamido)-3-fluorobenzamide] yielded a pest or weed control at 50 µg/cm2 [1, 7] of 50 to 100% and a pest or weed control at 50 µg/cm2 [2, 8] of 50 to 100%.
